Laboratory results published in article PMC7681098 (Theranostics, 2021).
Where two headings read alike, the source gives them in different places.

Legend:
[1] = system: MV4-11 cells and MOLM13 cells; assay: Subcutaneous xenograft model; assay type: in vivo, BALB/c nude mice
Description: According to previously described, [31], BALB/c nude mice were subcutaneously inoculated with MV4-11 cells (5×10^6) and MOLM13 cells (5×10^6). […] Tumor volume and body weight were measured with the caliper twice weekly. Tumor volumes were calculated based on: tumor volume=length×width^2/2.
LT-171-861 was administered every two days in xenograft mice. […] Tumor-eliminated mice were monitored for an additional 20 days after dosing was halted.
Data were shown as mean±SD. […] Data were shown as mean±SD. (C) An engrafted tumor model was used to evaluate in vivo antitumor activity. The NOD/SCID mice were intravenously inoculated with MV4-11 cells. […] Log-rank testing was used to compare survival curves among treatment groups. […] (D) Apoptotic assays in engraft model were evaluated by TUNEL assay and cell proliferative activity was measured by Ki67 assay. Images were acquired at ×40 magnification. (E) BALB/c nude mice were subcutaneously inoculated with MV4-11 cells (5×10^6) and bodyweight of each mouse was recorded every other day. (F) Representative photo of tumors from BALB/c nude mice which were inoculated with MV4-11 cells. (G) BALB/c nude mice were subcutaneously inoculated with BaF3 cells bearing FLT3-ITD-N676D (n=6) and FLT3-ITD-F691L (n=6) respectively. […] (H) BALB/c mice were intravenously inoculated with cells used in (G). […] Log-rank testing was used to compare survival curves among treatment groups. […] (I) Representative photos of spleens dissected from mice in (H) inoculated with BaF3 cells bearing FLT-3-ITD-F691L.

[2] = system: BaF3 cells with FLT3-ITD/F691L; assay: Cell viability of transformed BaF3 cells; assay type: cell-based, murine; details: Mus musculus, read-out: BaF3 cells with FLT3 mutants IC50 ITD-F691L
Description: (§1) Lentivirus packaging and construction of transformed BaF3 cells were performed as described previously. […] Supernatants were collected and used to infect BaF3 cells, and transduced BaF3 cells were selected with puromycin (1 μg/ml) to obtain stably transformed cells.
(§2) The conditional medium (CM) was prepared from the supernatant of HS-5 cell culture for 5 days under normal culture conditions. At the indicated time point, cell viability was evaluated by MTT assay.

[3] = system: BaF3 cells with FLT3-ITD/D835Y; assay: Cell viability of transformed BaF3 cells; assay type: cell-based, murine
Description: as §1, §2

[4] = system: BaF3 cells with FLT3-ITD/Y842C; assay: Cell viability of transformed BaF3 cells; assay type: cell-based, murine; details: Mus musculus, read-out: BaF3 cells with FLT3 mutants IC50 ITD-Y842C
Description: as §1, §2

[5] = system: BaF3 cells with FLT3-ITD/N676D; assay: Cell viability of transformed BaF3 cells; assay type: cell-based, murine; details: Mus musculus, read-out: BaF3 cells with FLT3 mutants IC50 ITD-N676D
Description: as §1, §2

[6] = system: BaF3 cells with FLT3-D835Y; assay: Cell viability of transformed BaF3 cells; assay type: cell-based, murine; details: Mus musculus, read-out: BaF3 cells with FLT3 mutants IC50 D835Y
Description: as §1, §2

BaF3 cells with FLT3-ITD = assay: Cell viability of transformed BaF3 cells; assay type: cell-based, murine; details: Mus musculus, read-out: BaF3 cells with FLT3 mutants IC50 ITD
Description: as §1, §2

ERK2/MAPK1 = target: T1, ERK2/MAPK1 (Homo sapiens, UniProt P28482); assay: Kinase inhibition assay (Reaction Biology); assay type: biochemical
T1 construct: purchased Reaction Biology Corporation (PA, USA)
T1 sequence (P28482 whole entry): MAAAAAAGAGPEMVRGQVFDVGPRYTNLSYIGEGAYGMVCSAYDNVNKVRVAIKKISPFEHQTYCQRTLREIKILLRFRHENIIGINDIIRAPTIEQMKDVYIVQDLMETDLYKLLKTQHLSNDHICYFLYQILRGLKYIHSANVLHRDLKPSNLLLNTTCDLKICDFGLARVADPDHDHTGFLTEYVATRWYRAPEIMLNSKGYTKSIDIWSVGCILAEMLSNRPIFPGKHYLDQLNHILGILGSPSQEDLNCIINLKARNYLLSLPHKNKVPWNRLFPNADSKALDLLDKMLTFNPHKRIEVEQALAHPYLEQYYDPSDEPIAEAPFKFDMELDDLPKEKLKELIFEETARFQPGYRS

MOLM13 cells = assay: Stroma-protecting model: proliferation in HS-5 conditional medium or normal medium; assay type: cell-based; details: Homo sapiens, MOLM-13, 72 h, MTT
Description: At the indicated time point, cell viability was evaluated by MTT assay.
(A) Indicated FLT3 mutations were expressed in BaF3 cells respectively. […] The autophosphorylation level of FLT3 was visualized and compared by western blot analysis. […] The CM was prepared from HS-5 cell culture for 4 days under routine culture conditions, clarified by centrifugation, and used immediately. The CM was added to complete medium at a final concentration of 40%. Cell viabilities were measured by MTT assay. Data were shown as mean±SD. […] The FLT3 phosphorylation levels of FLT3, STAT5 and ERK 1/2 were determined by Western blot.
On the other hand, the bone marrow stroma-protecting environment containing a number of cytokines (e.g. FLT3 ligand, stromal derived factor-1, etc) could also decrease the drug efficacy of FLT3 inhibitors by activating FLT3 or its downstream effectors and building cross-talk between leukemic blasts and bone marrow microenvironment, [35].

FMS = target: T2, FMS (Homo sapiens, UniProt P07333); assay: Kinase inhibition assay (Reaction Biology); assay type: biochemical
T2 construct: purchased Reaction Biology Corporation (PA, USA)
T2 sequence (P07333 20-972): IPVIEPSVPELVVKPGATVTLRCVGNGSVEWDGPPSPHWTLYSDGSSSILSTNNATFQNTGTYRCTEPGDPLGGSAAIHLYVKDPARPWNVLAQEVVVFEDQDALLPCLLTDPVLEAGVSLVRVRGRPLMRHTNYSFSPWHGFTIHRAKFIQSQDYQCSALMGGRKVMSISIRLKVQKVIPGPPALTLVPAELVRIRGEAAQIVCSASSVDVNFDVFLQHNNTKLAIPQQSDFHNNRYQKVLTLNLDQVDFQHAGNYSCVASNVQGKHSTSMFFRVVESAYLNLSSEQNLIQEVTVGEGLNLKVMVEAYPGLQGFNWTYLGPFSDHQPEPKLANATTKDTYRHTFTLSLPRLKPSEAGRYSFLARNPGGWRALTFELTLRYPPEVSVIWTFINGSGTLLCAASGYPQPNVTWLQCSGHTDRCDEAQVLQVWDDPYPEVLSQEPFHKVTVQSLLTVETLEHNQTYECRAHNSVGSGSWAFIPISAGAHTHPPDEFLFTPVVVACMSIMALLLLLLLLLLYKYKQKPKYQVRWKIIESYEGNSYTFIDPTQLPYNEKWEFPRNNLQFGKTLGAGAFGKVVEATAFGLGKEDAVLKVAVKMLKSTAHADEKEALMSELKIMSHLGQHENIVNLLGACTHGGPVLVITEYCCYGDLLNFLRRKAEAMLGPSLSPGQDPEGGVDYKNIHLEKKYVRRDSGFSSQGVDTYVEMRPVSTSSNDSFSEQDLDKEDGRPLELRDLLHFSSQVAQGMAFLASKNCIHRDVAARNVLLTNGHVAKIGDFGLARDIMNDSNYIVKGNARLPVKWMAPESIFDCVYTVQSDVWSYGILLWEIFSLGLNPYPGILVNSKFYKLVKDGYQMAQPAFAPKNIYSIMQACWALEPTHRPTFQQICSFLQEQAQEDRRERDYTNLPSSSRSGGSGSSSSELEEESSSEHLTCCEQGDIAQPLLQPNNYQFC

With CN1CCN(Cc2ccc(NC(=O)c3n[nH]cc3Nc3ncnc4[nH]ccc34)cc2)CC1 [LT-171-861] as the molecule, how does the “tumor growth in xenograft models” value ([1]; 10 mg/kg intravenous every two days, 20 or 24-day treatment) read?
Its value is “complete tumor regression was achieved”.

And the bodyweight during dosing ([1]; MV4-11 cell line xenograft model)?
The bodyweight during dosing was “no significant weight suppression”.

What about the “H&E staining in liver, heart, spleen, lung and kidney” value ([1]; MV4-11 cell line xenograft model, end of experiment) of the same molecule?
The value was “no significant damage”.

And the “tumor regrowth after dosing was halted” value ([1]; monitored for an additional 20 days)?
The value was “No tumor regrowth was observed”.

What about the IC50 [2] of the same molecule?
The IC50 was 7.65 nM.

And the “IC50 lower than that of sorafenib in cells bearing ITD-D835Y mutations” value ([3]; BaF3 FLT3-ITD-D835Y)?
Its value is ~16 fold.

What about the IC50 ([3]; Mus musculus, BaF3, cell viability, read-out: BaF3 cells with FLT3 mutants IC50 ITD-D835Y) of the same molecule?
The IC50 was 57.2 nM.

And the IC50 [4]?
The IC50 was 18.8 nM.

And the IC50 [5]?
The IC50 was 47.5 nM.

What about the IC50 [6] of the same molecule?
Its IC50 is 23.3 nM.

What about the IC50 (BaF3 cells with FLT3-ITD) of the same molecule?
Its IC50 is 4.1 nM.

And the IC50 (ERK2/MAPK1; 10 μM ATP, 10-dose IC50 mode, read-out: IC50 ERK2/MAPK1)?
Its IC50 is 798 nM.

What about the IC50 (ERK2/MAPK1; read-out: IC50 ERK2) of the same molecule?
The IC50 was > 200 nM.

What about the IC50 (MOLM13 cells; HS-5 conditional medium (CM) 40%, read-out: IC50 proliferation of MOLM13 cells in CM) of the same molecule?
Its IC50 is 24.7 nM.

What about the IC50 (MOLM13 cells; normal medium (NM), read-out: IC50 proliferation of MOLM13 cells in NM) of the same molecule?
Its IC50 is 19.9 nM.

And the IC50 (FMS)?
Its IC50 is > 200 nM.

What about the IC50 (FMS; 10 μM ATP, 10-dose IC50 mode) of the same molecule?
Its IC50 is 247 nM.
